In general, melting point refers to the temperature, or range, at which the solid turns liquid. `O=CNNc1ccc(NC(=S)N2CCOCC2)cc1` yielded a melting point of 204 to 206 °C.
For `COc1ccc2c(c1)cc(Cc1cc3ccccc3n1S(=O)(=O)c1ccccc1)n2S(=O)(=O)c1ccccc1` the value was 98 to 100 °C.
For `O=C1c2cccnc2C(=O)N1Cc1ccccc1` the value was 163 to 165 °C; for `COC1(C=CCOc2ccc3c(-c4ccc(F)cc4)c4c(cc3c2)C(=O)OC4)CCOCC1`, 144 to 148 °C; for `c1ccc(CN2CCN(CC3CCc4ccccc4O3)CC2)cc1` (centres undefined), over 230 °C.
The figure for `CCCc1c(C(=O)OCC)sc2[nH]c(=O)c(=O)[nH]c12` is 305 to 307 °C; for `NCc1cccnc1C1CCN(c2cc3c(cc2F)c(=O)c(C(=O)O)cn3C2CC2)C1` (centres undefined) it is 246 to 248 °C; for `CCOC(=O)c1cnc2ccc(Oc3ccccc3)nc2c1Cl` it is 133 to 137 °C.
In the case of `COc1cccc2c1C(=O)c1c(OC)cc(-c3nnn[nH]3)cc1C2=O`, the melting point lay in the range of 262 to 264 °C.
For `CC(C)c1ccccc1SC1=C(O)CC(CCCCC(=O)O)(c2ccccc2)OC1=O` (centres undefined) the value was 145 to 146 °C; for `CCN1C(=O)C(C)(C)C(=O)N(C)c2cc(CN(CCn3ccc4oc(C)cc4c3=O)Cc3cccnc3)ccc21`, 124 to 127 °C; for `NC(C(=O)CCC(=O)O)c1ccc(Nc2n[nH]c3ncnc(Nc4cccc(Cl)c4)c23)cc1` (centres undefined), 205 to 207 °C.
For `CCCn1cc(C(=O)NCc2ccc(Cl)cc2)c(=O)c2cc(CN3CCOCC3)sc21`, the melting point lay within 174 to 176 °C.
For `C[Si](C)(C)C#Cc1ccc(C(=O)OCc2ccccc2)cc1OCc1ccccc1` the value was 110 to 112 °C.
For `CCCCCN(C(=O)OC(C)(C)C)c1nc(N(C)Cc2ccccc2)c2ncn(CC(=O)O)c2n1` the value was 116 to 127 °C.
The figure for `Cc1cc(O)c([N+](=O)[O-])c(=O)n1CC(=O)OCc1ccccc1` is 146 to 147 °C; for `CC(=O)C(Cl)=NNc1ccc(C)cc1` it is 141 to 143 °C; for `CN1C(=O)C2CCCN2Cc2ccccc21` (centres undefined) it is 120 to 122 °C.
`C=C(C)C(=O)OCCNc1nc(Cl)nc(Cl)n1` displayed a melting point of 138 to 140 °C.
For `Nc1ccc(OCc2nc3cc(F)ccc3s2)cc1` the value was 125 to 128 °C; for `O=C(O)c1ccc(CNC(=O)C2Cc3ccccc3N2S(=O)(=O)c2ccc(-c3ccc(F)cc3Cl)cc2)cc1` (centres undefined), 111 to 124 °C; for `COc1ccc(C(=O)CC(O)C(=O)O)cc1OC` (centres undefined), 106 to 108 °C.
With `COC(=O)Cc1csc2cc(-c3ccccc3)cn12`, the melting point fell in the range of 88 to 89 °C.
For `COC(=O)C(C)CNc1nc2ccccc2o1` (centres undefined) the value was 89 to 90 °C; for `O=c1[nH]c2c(Cl)cccc2c(=O)n1CCCN1CC2CCC(C1)N2c1ccc(Cl)cc1`, 167 to 169 °C.
With `CCOCCOc1ccc(-c2nc(=O)c3ccccc3s2)cn1`, the melting point lay in the range of 93.6 to 94.9 °C.
The figure for `O=C(CNc1ccc2[nH]c(=O)[nH]c2c1)N1CCC(Cc2ccc(F)cc2)CC1` is 85 to 87 °C; for `CC(=O)NNc1ccc(N)cc1` it is 130 to 140 °C.
For `O=C(/C=C/c1ccc2cc[nH]c2c1)CC(=O)/C=C/c1cc(O)ccc1Br` the value was 196 to 200 °C; for `Cc1nc(N2CCN(Cc3ccc(F)cc3)C2=O)sc1C(=O)NCc1ccncc1`, 146 to 149 °C; for `CC(C)Oc1c(C(=O)O)sc2c1CSCC2`, 148 to 149 °C.
The figure for `CO[C@@H](C(=O)N[C@H]1CC[C@@H](OC(=O)C=Cc2ccccc2)CNC1=O)[C@H](O)[C@@H](O)[C@H](O)/C=C/C(C)(C)C` is 83 to 85 °C.
With `CC1CN(c2ccc(N3CC(CNC(=O)CC#N)OC3=O)cc2F)CCC1=CC#N` (centres undefined), the melting point was in the range of 102 to 104 °C.
For `O=C(c1ccc(Sc2ccc(O)cc2)cc1)c1ccc(Sc2ccc(O)cc2)cc1` the value was 219 to 221 °C.

For the origin of these results see a melting point compilation (Tetko et al.; mined from patent text by program, amines drawn as free bases though some values may be those of a salt).
